Results reported in PubChem BioAssay (NCI).
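Exposure lasted 48 hours, with cells grown in 96-well plates and compounds tested at five concentrations. GI50 marks 50% less growth. TGI marks complete inhibition of growth.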

Tests used:
Test in all cases: DTP human tumour cell line panel, 48 h
[1] = test system: COLO 205 colon
[2] = test system: HCC-2998 colon
[3] = test system: HT29 colon
[4] = test system: KM12 colon
[5] = test system: MOLT-4 leukemia
[6] = test system: OVCAR-3 ovarian
[7] = test system: SF-539 CNS
[8] = test system: SK-MEL-2 melanoma
[9] = test system: SK-MEL-5 melanoma
[10] = test system: SN12C renal
[11] = test system: NCI/ADR-RES ovarian

In the case of `CC(C)C(N=C1CC2CCC1(C(=O)Nc1ccccc1O)C2(C)C)c1ccccc1` (centres undefined), the TGI [1] is reported as > 10 µM, the TGI [2] is reported as > 10 µM and the TGI [3] is reported as > 10 µM. The TGI [4] was > 10 µM, the TGI [5] was > 10 µM and the TGI [6] was > 10 µM. For the same molecule, the TGI [7] was > 10 µM, the TGI [8] was > 10 µM and the TGI [9] was > 10 µM. The TGI [10] was > 10 µM.
`CCCC(CCC(=O)O)(CCC(=O)O)[N+](=O)[O-]` was tested, and the TGI [1] was > 100 µM, the TGI [3] was > 100 µM and the TGI [4] was > 100 µM. For the same molecule, the TGI [5] was > 100 µM, the TGI [11] was > 100 µM and the TGI [7] was > 100 µM. For the same molecule, the TGI [8] was > 100 µM, the TGI [9] was > 100 µM and the TGI [10] was > 100 µM.
For `Clc1cccc(C=NC23CC4CC(CC(C4)C2)C3)c1Cl`, the TGI [1] was > 10 µM, the TGI [2] was > 10 µM and the TGI [3] was > 10 µM. The TGI [4] was > 10 µM, the TGI [11] was > 10 µM and the TGI [6] was > 10 µM. For the same molecule, the TGI [7] was > 10 µM, the TGI [8] was > 10 µM and the TGI [9] was > 10 µM. The TGI [10] was > 10 µM.
In the case of `COC(=O)[C@@]1(Cc2ccc(OC(C)=O)cc2)Cc2cc3ccccc3n2N1`, the TGI [1] is reported as 92.7 µM, the TGI [3] is reported as > 100 µM and the TGI [4] is reported as > 100 µM. For the same molecule, the TGI [5] was > 100 µM, the TGI [11] was 96.4 µM and the TGI [6] was > 100 µM. The TGI [7] was > 100 µM, the TGI [8] was 52.2 µM and the TGI [9] was 37.1 µM. The TGI [10] was > 100 µM.
`O=C1C2Cc3ccccc3CN2C(=O)N1CN1CCCCC1` (centres undefined) was tested, and the TGI [1] was > 100 µM, the TGI [2] was > 100 µM and the TGI [4] was > 100 µM. The TGI [5] was > 100 µM, the TGI [6] was > 100 µM and the TGI [7] was > 100 µM. The TGI [8] was > 100 µM, the TGI [9] was > 100 µM and the TGI [10] was > 100 µM.
Work on `Cn1cnc([N+](=O)[O-])c1Sc1nnc(-c2ccc(Cl)cc2)n1C` yielded a TGI [1] of 24.3 µM, a TGI [2] of 32.3 µM and a TGI [3] of 32 µM. The TGI [4] was 49.9 µM, the TGI [5] was 66.1 µM and the TGI [6] was 26.9 µM. The TGI [7] was 37.4 µM, the TGI [8] was 34.8 µM and the TGI [10] was 28.4 µM.
For `Cc1ccc2c(=O)cc(-c3ccccc3)[nH]c2n1`, the TGI [2] was 4.68 µM, the TGI [3] was 0.194 µM and the TGI [4] was 45.7 µM. The TGI [5] was > 28.3 µM, the TGI [11] was 0.31 µM and the TGI [6] was 0.308 µM. For the same molecule, the TGI [7] was 2.79 µM, the TGI [8] was > 100 µM and the TGI [9] was 18.7 µM. For the same molecule, the TGI [10] was > 36 µM.
In the case of `CN(C)c1ccc(/C=C(\C#N)C(=O)c2ccccc2)cc1Br`, the TGI [1] is reported as > 100 µM, the TGI [2] is reported as > 100 µM and the TGI [3] is reported as > 100 µM. For the same molecule, the TGI [4] was > 100 µM, the TGI [5] was > 100 µM and the TGI [6] was > 100 µM. The TGI [7] was > 100 µM, the TGI [8] was > 100 µM and the TGI [9] was > 100 µM. For the same molecule, the TGI [10] was > 100 µM.
`CSCCC(NOC(=O)Cc1ccccc1)P(=O)(O)c1ccccc1` (centres undefined) was tested, and the TGI [1] was > 100 µM, the TGI [2] was > 100 µM and the TGI [3] was > 100 µM. The TGI [5] was > 100 µM, the TGI [11] was > 100 µM and the TGI [6] was > 100 µM. For the same molecule, the TGI [8] was > 100 µM, the TGI [9] was > 100 µM and the TGI [10] was > 100 µM.
For `CC(=O)OC1CC[C@@]2(C)C(=CC[C@@H]3[C@@H]2CC[C@]2(C)Nc4c(cnn4-c4ccc(F)cc4)C[C@@H]32)C1` (some centres undefined), the TGI [1] was > 78.7 µM, the TGI [2] was > 100 µM and the TGI [3] was > 100 µM. For the same molecule, the TGI [4] was > 84.1 µM, the TGI [11] was > 100 µM and the TGI [6] was > 100 µM. For the same molecule, the TGI [7] was 17.2 µM, the TGI [8] was > 73.6 µM and the TGI [9] was > 93.9 µM. The TGI [10] was > 100 µM.
For `COc1ccccc1-c1nc[nH]c1-c1ccccc1OC`, the TGI [4] was 28.3 µM, the TGI [5] was > 100 µM and the TGI [11] was 61.8 µM. The TGI [6] was > 100 µM, the TGI [8] was > 100 µM and the TGI [10] was > 100 µM.
`Cn1c(=Nc2ccccc2[N+](=O)[O-])sc2ccccc21` was tested, and the TGI [1] was > 100 µM, the TGI [2] was > 100 µM and the TGI [3] was > 100 µM. For the same molecule, the TGI [4] was 15.5 µM, the TGI [5] was > 100 µM and the TGI [11] was > 100 µM. The TGI [7] was > 100 µM, the TGI [8] was > 100 µM and the TGI [9] was > 100 µM. The TGI [10] was > 100 µM.
`COc1ccc(/C=N/NC(=O)NCCNCCO)cc1` was tested, and the TGI [1] was > 100 µM, the TGI [3] was > 100 µM and the TGI [4] was > 100 µM. The TGI [5] was > 100 µM, the TGI [6] was > 100 µM and the TGI [7] was > 100 µM. For the same molecule, the TGI [8] was > 100 µM, the TGI [9] was > 100 µM and the TGI [10] was > 100 µM.
With `COC(=O)C12CCC(CC1=O)C2(C)C` (centres undefined) the TGI [1] was > 100 µM, the TGI [2] was > 100 µM and the TGI [3] was > 100 µM. For the same molecule, the TGI [5] was > 100 µM, the TGI [6] was > 100 µM and the TGI [7] was > 100 µM. For the same molecule, the TGI [9] was > 100 µM and the TGI [10] was > 100 µM.
Molecule `CCCN1CCN(c2ccc3nc(-c4ccc5nc(-c6ccc(OCC)cc6)[nH]c5c4)[nH]c3c2)CC1` has a GI50 [5] of 1060 nM, a TGI [5] of 3.42 µM and a GI50 [11] of 2840 nM. The TGI [11] was > 100 µM, the GI50 [6] was 1990 nM and the TGI [6] was 3.59 µM. The GI50 [8] was 2340 nM, the TGI [8] was 5.86 µM and the GI50 [9] was 1040 nM. For the same molecule, the TGI [9] was 2.24 µM, the GI50 [10] was > 100 µM and the TGI [10] was > 100 µM.
In the case of `Nc1ccc(Oc2ccc(C34CC5CC(C3)CC(c3ccc(Oc6ccc(N)c(O)c6)cc3)(C5)C4)cc2)cc1O`, the TGI [1] is reported as 2.85 µM, the TGI [3] is reported as 5.16 µM and the TGI [4] is reported as 3.62 µM. The TGI [5] was > 100 µM, the TGI [11] was 6.12 µM and the TGI [6] was 5.05 µM. For the same molecule, the TGI [7] was 4.57 µM, the TGI [8] was 5.1 µM and the TGI [9] was 4.37 µM. For the same molecule, the TGI [10] was > 21.2 µM.
`O=C(NNC(=O)c1ccccc1O)c1cccs1` was tested, and the TGI [1] was > 100 µM, the TGI [3] was > 100 µM and the TGI [4] was > 100 µM. For the same molecule, the TGI [5] was > 100 µM, the TGI [11] was > 100 µM and the TGI [6] was > 100 µM. The TGI [7] was > 100 µM, the TGI [8] was > 100 µM and the TGI [9] was > 100 µM. For the same molecule, the TGI [10] was > 100 µM.
`N#Cc1ccccc1C#C/C=C\C#Cc1ccccn1` gave a TGI [1] of 73.5 µM, a TGI [2] of 27.6 µM and a TGI [3] of 41.6 µM. For the same molecule, the TGI [4] was 29.6 µM, the TGI [11] was 34.3 µM and the TGI [6] was 19.2 µM. For the same molecule, the TGI [7] was 45.1 µM, the TGI [8] was 33.3 µM and the TGI [9] was 12.9 µM. The TGI [10] was 47.8 µM.
In the case of `COc1ccc(-c2oc(C=Nc3ccccc3)c([N+](=O)[O-])c2-c2ccc(OC)c(OC)c2)cc1OC`, the TGI [1] is reported as > 100 µM, the TGI [2] is reported as > 100 µM and the TGI [3] is reported as > 100 µM. The TGI [4] was > 100 µM, the TGI [5] was > 100 µM and the TGI [6] was > 100 µM. The TGI [7] was > 100 µM, the TGI [9] was > 100 µM and the TGI [10] was > 100 µM.
For `CN(C)CC(O)CNC(=O)Nc1ccccc1` (centres undefined), the TGI [1] was > 100 µM, the TGI [2] was > 100 µM and the TGI [3] was > 100 µM. The TGI [4] was > 100 µM, the TGI [11] was > 100 µM and the TGI [6] was > 100 µM. The TGI [7] was > 100 µM, the TGI [8] was > 100 µM and the TGI [9] was > 100 µM. For the same molecule, the TGI [10] was > 100 µM.
For `C#CCN1C(=O)CN2C(Cl)(Cl)C2(c2ccccc2)c2cc(Cl)ccc21` (centres undefined), the TGI [1] was > 100 µM, the TGI [2] was > 100 µM and the TGI [3] was > 100 µM. The TGI [4] was 94 µM, the TGI [5] was 57.4 µM and the TGI [6] was > 100 µM. For the same molecule, the TGI [8] was > 100 µM, the TGI [9] was > 100 µM and the TGI [10] was > 100 µM.
With `Cc1nc2cc3[nH]c4ccccc4c(=O)c3cc2s1` the TGI [1] was > 100 µM, the TGI [2] was > 100 µM and the TGI [3] was > 100 µM. For the same molecule, the TGI [4] was > 100 µM, the TGI [5] was > 100 µM and the TGI [6] was > 100 µM. For the same molecule, the TGI [7] was > 100 µM, the TGI [8] was > 100 µM and the TGI [9] was > 100 µM. The TGI [10] was > 100 µM.
